Each block holds one compound with its values, some of them ahead of it.
Legend:
[1] = tested on: S. aureus subspecies aureus Rosenbach, strain FDA 209; test: ASTM E1153-14 glass coupon test, 5 min treatment, CFU plate counts; format: cell-based, Staphylococcus aureus
[2] = tested on: Salmonella enterica; test: Test coupons coated with Salmonella enterica, CFU reduction versus water; format: cell-based; details: 0.05M acetate buffer with or without 1.5 ppm aqueous ozone
[3] = tested on: Klebsiella; test: Test coupons coated with Klebsiella, CFU reduction versus water; details: acetate buffer with or without 1.5 ppm aqueous ozone
[4] = Ability of the buffer to accept aqueous ozone (kiosk sensors and instrumentation); format: physicochemical; details: buffer at approximate pH 5.5 to 6, ozonated with the CCT 1.0 kiosk
Excerpt: Additionally, not all buffering compounds are suitable or effective for use as additives. […] The MES and ascorbate buffers were unable to accommodate the addition of aqueous ozone, showing no ozone in the resulting solution according to the kiosk sensors and instrumentation.

[5] = cited from earlier work
[6] = tested on: Staphylococcus aureus subspecies aureus Rosenbach, strain FDA 209; test: AOAC method (961.02) spray disinfection of glass coupons, 10 min, turbidity (+/-) in Letheen broth; format: cell-based; details: for coupons negative: range-finding; for Percent kill / Number− / Number+: 10 min; for Number−: negative coupons; for Number+: positive coupons
Excerpt: A freeze-dried stock of Staphylococcus (Staphylococcus aureus subspecies aureus Rosenbach, strain FDA 209), as specified by the AOAC method (961.02), was obtained from ATCC. After rehydration and growth in appropriate culture medium (BD Tryptic soy broth lot #4335611), both plated stocks and stocks frozen in glycerol were created. Staphylococcus was quantified for absorbance at 600 nm versus colony forming units (CFU) by serially diluting inoculum and reading absorbance followed by plating of dilutions onto agar plates. Prior to aqueous ozone testing, growth medium was inoculated and incubated in a shaker incubator (New Brunswick Scientific, serial #890615130) at 37° C. for 24 hours and then transfer cultured two additional times with a final incubation of 48 hours. Twenty microliters of the resulting inoculum was used to coat glass slides (Fisher), also known as test squares or coupons, with 10^5 to 10^7 cells, as calculated from the standard curve generated from the absorbance qualification data, and allowed to dry in a 37° C. incubator for 40 minutes following ASTM E1153-14. After drying, treated coupons were sequentially treated with 1.5 or 4 ppm aqueous ozone alone, 1.5 or 4 ppm aqueous ozone combined with a predetermined dilution of PAA, or PAA alone, then incubated for 10 minutes at room temperature. Additionally, immediately before and after testing three inoculated untreated coupons were place in labeled 50 ml conical tubes containing 20 ml of Letheen broth, vortexed, pooled, and plated to provide carrier counts. The mean log 10 density (LD) of the carrier counts for S. aureus must be between 5.0 and 6.5 in order for the test to be valid in this method.
Briefly, aqueous ozone was generated using the free standing CCT 1.0 unit (mounted in a kiosk enclosure) at a concentration of 1.5 ppm or 4 ppm. The water source utilized by the CCT 1.0 was clean, cold, softened Omaha municipal tap water. […] Aqueous ozone was sterile collected in a biological safety cabinet before and used immediately. Treatments were applied to the appropriate freshly prepared coupons contained within labeled petri dishes using a sprayer provided by CleanCore.
Following the testing period, coupons were removed from the individual petri dishes and transferred to corresponding labeled 50 ml conical tubes containing 20 ml of Letheen broth. One sterile un-inoculated coupon and one inoculated untreated coupon were also transferred to separate labeled 50 ml conical tubes containing 20 ml of Letheen broth in order to provide sterility and viability controls, respectively. All testing vials were shaken then incubated at 36±1° C. for 48±2 hours, then visually assessed for turbidity(+). Positive sample vials were plated to determine colony morphology similarity to test organism. All test plates were plated with 0.2 ml spread onto 2 replicates using a glass spreader and a Bel-Art inoculating turntable. Results of testing were analyzed for statistical significance in SPSS using a McNemar exact test for dichotomous data, with a significance level of α=0.05.

[7] = tested on: Salmonella Typhimurium (UK-1); test: Antimicrobial spray on inoculated chicken carcasses, rinsate plate counts; format: cell-based; details: spray 4x5 seconds; 500 ppm PAA with or without 10 ppm ozone
Experimental: (§1) Briefly, chicken carcasses (70 whole hen carcasses for 7 treatments and 10 replications) were inoculated with 400 mL of a cocktail containing Salmonella Typhimurium (UK-1), E. coli (J53), and Campylobacter jejuni (3×10^7 CFU/mL) and allowed to adhere for 60 minutes at 4° C. for a final concentration of 10^5-10^6 CFU/g. Chicken carcasses then received no treatment (negative control) or were then treated by spraying (4×5 seconds) with tap water, tap water with 10 ppm ozone, tap water with PAA (50 ppm), tap water with PAA (500 ppm), tap water with 10 ppm ozone and PAA (500 ppm), or tap water with 10 ppm ozone and PAA (50 ppm). Further, the ambient PAA was measured using a PAA specific sensor during treatment. After treatment, chicken carcasses were rinsed in 400 mL of neutralizing buffered peptone water (20.0 g of buffered peptone, 7 g of refined soy lecithin or equivalent, 1.0 g of sodium thiosulfate, 12.5 g of sodium bicarbonate, per 1 liter of deionized water) for 2 minutes with agitation. Subsequently, the rinsate was serially diluted, spread plated on Xylose Lysine Deoxycholate (XLD) and Blood Free Campylobacter Agar (BFCA; modified Charcoal-Cefoperazone-Deoxycholate agar (mCCDA)), and incubated aerobically at 37° C. for 24 hours and microaerophilic at 42° C. for 48 hours, respectively. Log-transformed counts were analyzed using one-way ANOVA in JMP 14.0. Means were separated using Tukey's HSD when P≤0.05.

[8] = tested on: Campylobacter jejuni; test: as above; format: cell-based
Experimental: as §1

[9] = humans, after exposure; cited from earlier work
[10] = Table 16A, 1.5 ppm ozone and/or 15 ppm PAA
[11] = Table 16B, 4 ppm ozone and/or 15 ppm PAA
[12] = Table 16C, 1.5 ppm ozone and/or 10 ppm PAA
[13] = Table 16D, 1.5 ppm ozone and/or 20 ppm PAA, three experiments

Compound: CC(=O)O [Acetic acid]
log reduction of S. aureus CFU post treatment, compared to a water control ([1]; 0.05M acetate buffer with or without 1.5 ppm aqueous ozone): less than 1 log
reduction versus water ([1]; acetate buffer alone, no ozone): 66.92%
log reduction of Salmonella CFU versus water [2]: 1 log
log reduction in Klebsiella CFU versus the water control [3]: 1 log

Compound: O=S(=O)(O)CCN1CCOCC1 [MES, 2-(N-morpholino) ethane sulfonic acid]
ozone in the resulting buffered solution [4]: no ozone

Compound: CC(=O)OO [PAA, peracetic acid]
coupons negative ([6]; PAA 10 ppm in sterile water): 3 out of 10 coupons
coupons negative ([6]; PAA 25 ppm in sterile water): 6 out of 10 coupons
coupons negative ([6]; PAA 50 ppm in sterile water): 9 out of 10 coupons
coupons negative ([6]; PAA 100 ppm in sterile water): 9 out of 10 coupons
Percent kill [6, 10]: 76.7%
Number− [6, 10]: 23
Number+ [6, 10]: 7
Percent kill [6, 11]: 73.3%
Number− [6, 11]: 22
Number+ [6, 11]: 8
Percent kill [6, 12]: 6.7%
Number− [6, 12]: 2
Number+ [6, 12]: 28
Percent kill [6, 13]: 87.8%
Number− [6, 13]: 79
Number+ [6, 13]: 11
log CFU per gram of Salmonella on carcasses [7]: 5.86 log CFU/g
log CFU per gram of C. jejuni on carcasses ([8]; spray 4x5 seconds, 500 ppm PAA with or without 10 ppm ozone): 4.81 log CFU/g
effect on Campylobacter compared to untreated controls ([8]; spray on chicken carcasses, P≤0.05): significantly reduced
PAA level that can cause irritation to the upper respiratory tract [9]: 5 ppm

Compound: O=[O+][O-] [aqueous ozone, ozone]
Percent kill [6, 10]: 0.0%
Number− [6, 10]: 0
Number+ [6, 10]: 30
Percent kill [6, 11]: 0.0%
Number− [6, 11]: 0
Number+ [6, 11]: 30
Percent kill [6, 12]: 0.0%
Number− [6, 12]: 0
Number+ [6, 12]: 30
Percent kill [6, 13]: 0.0%
Number− [6, 13]: 0
Number+ [6, 13]: 90

Further lines, with some results ahead:

ozone in the resulting buffered solution [4]: no ozone
Compound: O=C1O[C@H]([C@@H](O)CO)C(O)=C1O [Ascorbic acid]

ozone in the resulting buffered solution [4]: did accept ozonation
Compound: O=C(O)CC(O)(CC(=O)O)C(=O)O [Citric acid]

ozone in the resulting buffered solution [4]: did accept ozonation
Compound: O=C(O)C(=O)O [Oxalic acid]
pKa (second value) [5]: 4.40
